Reference: patent publication US12227500B2, “Substituted pyrrolo[2,3-b]pyridines for suppressing toxic endoplasmic reticulum stress” (THE TRUSTEES OF COLUMBIA UNIVERSITY IN THE CITY OF NEW YORK, priority 2018, dated 2025)
Read-outs that look alike come from different tables or passages of the source.

Key:
[1] = tested on: human ES motor neurons carrying the ALS-causing SOD1^A4V mutation; experiment: cells; format: cell-based; conditions: for EC50 / Emax: CPA 33 μM; for EC50 / viability at 1 µM / Emax: 72 h; for viability at 1 µM: CPA (33 μM) + compound (1 μM), read-out: Motor Neuron Survival, % untreated; for Emax: read-out: Emax (MN survival % untreated)
Method: Next, survival assays were performed with all the analogs at once to generate a low-variability dataset. All compounds were evaluated at concentrations ranging from 0.1-3.0 μM (five-point dilution) in three technical replicates and two biological replicates.

MLK1/MAP3K9 = biological target: T1, MLK1/MAP3K9 (Homo sapiens, UniProt P80192); experiment: Radiolabeled ATP kinase assay (Reaction Biology Corp.), MLK1; format: biochemical; conditions: [Cmpd] 0.1 μM, 10 μM ATP
T1 construct: purchased Reaction Biology Corp
T1 sequence (P80192 whole entry): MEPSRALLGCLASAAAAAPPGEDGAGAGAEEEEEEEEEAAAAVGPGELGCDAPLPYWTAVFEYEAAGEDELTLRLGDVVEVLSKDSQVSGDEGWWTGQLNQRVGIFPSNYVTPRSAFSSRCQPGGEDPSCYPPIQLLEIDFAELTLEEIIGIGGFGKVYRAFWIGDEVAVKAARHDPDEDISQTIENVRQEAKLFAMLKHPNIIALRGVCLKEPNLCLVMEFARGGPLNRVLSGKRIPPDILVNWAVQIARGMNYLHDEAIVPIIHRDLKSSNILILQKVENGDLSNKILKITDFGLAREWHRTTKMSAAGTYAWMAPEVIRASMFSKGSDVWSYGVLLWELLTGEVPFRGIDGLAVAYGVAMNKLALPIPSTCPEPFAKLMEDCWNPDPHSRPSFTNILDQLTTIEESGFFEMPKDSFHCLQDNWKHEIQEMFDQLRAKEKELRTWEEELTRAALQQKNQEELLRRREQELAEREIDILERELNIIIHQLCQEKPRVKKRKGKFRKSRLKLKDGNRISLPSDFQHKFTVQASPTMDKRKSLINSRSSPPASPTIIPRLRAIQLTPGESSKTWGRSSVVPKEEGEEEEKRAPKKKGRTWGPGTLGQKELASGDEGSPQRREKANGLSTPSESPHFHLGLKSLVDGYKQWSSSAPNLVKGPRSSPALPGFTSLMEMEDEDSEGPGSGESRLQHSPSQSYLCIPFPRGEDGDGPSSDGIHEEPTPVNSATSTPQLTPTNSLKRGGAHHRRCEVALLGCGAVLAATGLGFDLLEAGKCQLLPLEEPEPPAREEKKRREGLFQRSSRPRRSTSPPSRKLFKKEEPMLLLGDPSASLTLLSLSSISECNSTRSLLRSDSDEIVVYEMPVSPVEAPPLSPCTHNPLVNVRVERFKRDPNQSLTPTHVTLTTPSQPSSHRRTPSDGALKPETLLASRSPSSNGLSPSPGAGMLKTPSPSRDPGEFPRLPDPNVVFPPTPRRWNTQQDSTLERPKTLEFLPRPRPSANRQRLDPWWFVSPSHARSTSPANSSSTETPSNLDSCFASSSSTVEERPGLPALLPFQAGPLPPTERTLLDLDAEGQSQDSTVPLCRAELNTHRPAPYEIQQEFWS
Method: (§1) Meanwhile, the same analogs were analyzed in a radiolabeled ATP assay (10 μM ATP; Reaction Biology Corp.) to compare the extent to which they could inhibit the activity of HGK, MLK1, or MLK3 in a cell-free environment (Table S3 and S4).

MLK3/MAP3K11 = biological target: T2, MLK3/MAP3K11 (Homo sapiens, UniProt Q16584); experiment: Radiolabeled ATP kinase assay (Reaction Biology Corp.), MLK3; format: biochemical; conditions: [Cmpd] 0.1 μM; 10 μM ATP
T2 construct: purchased Reaction Biology Corp
T2 sequence (Q16584 whole entry): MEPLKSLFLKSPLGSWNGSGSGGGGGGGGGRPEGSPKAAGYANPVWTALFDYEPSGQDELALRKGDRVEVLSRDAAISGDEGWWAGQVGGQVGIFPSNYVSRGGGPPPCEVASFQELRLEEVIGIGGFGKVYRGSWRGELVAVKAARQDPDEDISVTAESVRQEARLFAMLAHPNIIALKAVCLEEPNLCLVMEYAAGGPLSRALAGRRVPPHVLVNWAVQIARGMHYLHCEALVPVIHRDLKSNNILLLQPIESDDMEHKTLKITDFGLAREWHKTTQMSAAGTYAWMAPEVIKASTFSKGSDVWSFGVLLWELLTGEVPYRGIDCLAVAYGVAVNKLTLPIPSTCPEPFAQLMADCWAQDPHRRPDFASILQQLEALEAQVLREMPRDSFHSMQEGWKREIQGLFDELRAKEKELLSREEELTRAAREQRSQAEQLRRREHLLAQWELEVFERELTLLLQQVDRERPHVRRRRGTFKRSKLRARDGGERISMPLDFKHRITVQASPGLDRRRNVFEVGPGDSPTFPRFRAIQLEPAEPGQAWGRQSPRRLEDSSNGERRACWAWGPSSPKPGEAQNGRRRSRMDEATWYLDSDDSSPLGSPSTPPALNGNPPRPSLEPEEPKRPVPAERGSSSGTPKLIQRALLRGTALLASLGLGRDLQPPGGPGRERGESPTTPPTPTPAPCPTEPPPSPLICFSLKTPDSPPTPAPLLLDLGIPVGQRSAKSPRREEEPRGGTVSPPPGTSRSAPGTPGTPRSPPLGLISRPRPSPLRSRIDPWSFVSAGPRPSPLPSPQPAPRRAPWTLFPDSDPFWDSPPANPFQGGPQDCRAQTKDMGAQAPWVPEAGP
Method: as §1

HGK/MAP4K4 = HGK/MAP4K4 (Homo sapiens, UniProt O95819); experiment: Radiolabeled ATP kinase assay (Reaction Biology Corp.), HGK; format: biochemical; design: purchased Reaction Biology Corp; conditions: 10 μM ATP, read-out: % Enzyme Activity (relative to DMSO controls), HGK/MAP4K4, Data 1; for remaining activity at 0.025 µM: [Cmpd] 0.025 μM; for remaining activity at 0.1 µM: [Cmpd] 0.1 μM
HGK/MAP4K4, sequence (O95819 whole entry): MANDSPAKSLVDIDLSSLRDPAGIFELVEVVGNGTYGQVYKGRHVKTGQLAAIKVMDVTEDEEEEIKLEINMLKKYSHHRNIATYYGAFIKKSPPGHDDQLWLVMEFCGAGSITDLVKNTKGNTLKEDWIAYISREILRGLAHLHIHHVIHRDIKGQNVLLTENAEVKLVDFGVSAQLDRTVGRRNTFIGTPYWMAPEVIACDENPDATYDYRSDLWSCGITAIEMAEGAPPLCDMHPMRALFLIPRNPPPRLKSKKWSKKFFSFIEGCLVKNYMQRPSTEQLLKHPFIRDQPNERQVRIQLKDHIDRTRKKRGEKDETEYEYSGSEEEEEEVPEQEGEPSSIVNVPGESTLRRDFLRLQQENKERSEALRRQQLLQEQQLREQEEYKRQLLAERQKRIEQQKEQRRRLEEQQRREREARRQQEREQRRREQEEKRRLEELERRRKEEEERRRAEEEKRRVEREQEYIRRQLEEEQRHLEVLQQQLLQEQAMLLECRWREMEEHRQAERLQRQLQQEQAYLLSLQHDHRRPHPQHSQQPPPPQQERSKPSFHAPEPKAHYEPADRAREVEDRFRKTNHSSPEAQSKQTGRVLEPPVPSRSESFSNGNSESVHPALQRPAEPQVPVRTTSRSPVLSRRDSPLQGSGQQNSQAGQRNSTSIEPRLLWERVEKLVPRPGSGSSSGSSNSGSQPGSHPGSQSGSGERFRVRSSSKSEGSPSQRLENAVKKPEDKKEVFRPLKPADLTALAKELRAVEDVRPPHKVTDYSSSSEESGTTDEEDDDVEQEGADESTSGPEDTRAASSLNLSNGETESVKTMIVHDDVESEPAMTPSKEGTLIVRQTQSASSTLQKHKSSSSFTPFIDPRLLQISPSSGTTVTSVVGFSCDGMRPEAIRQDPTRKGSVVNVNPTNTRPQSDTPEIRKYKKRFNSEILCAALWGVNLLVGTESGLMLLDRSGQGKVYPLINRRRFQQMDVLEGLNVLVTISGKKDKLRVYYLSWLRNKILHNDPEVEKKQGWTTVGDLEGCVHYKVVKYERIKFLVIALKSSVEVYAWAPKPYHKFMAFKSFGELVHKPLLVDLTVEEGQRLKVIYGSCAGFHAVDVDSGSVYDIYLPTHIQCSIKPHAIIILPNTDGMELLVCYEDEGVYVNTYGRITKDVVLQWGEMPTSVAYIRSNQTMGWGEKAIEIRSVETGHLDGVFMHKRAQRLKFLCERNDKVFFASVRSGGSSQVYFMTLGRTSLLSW
Method: as §1

[2] = read-out: % Enzyme Activity Remaining (relative to DMSO controls), MLK1/MAP3K9, Data 1
[3] = read-out: % Enzyme Activity Remaining (relative to DMSO controls), MLK1/MAP3K9, Data 2
[4] = Homo sapiens, Neuron, read-out: EC50

Row | Compound | EC50 [1] | viability at 1 µM ([1]; Homo sapiens, Neuron) [%] | Emax ([1]; Homo sapiens, Neuron) [%] | remaining activity at 0.1 µM (MLK1/MAP3K9; [2]) [%] | remaining activity at 0.1 µM (MLK1/MAP3K9; [3]) [%] | % Enzyme Activity Remaining (relative to DMSO controls), MLK3/MAP3K11, Data 1 (MLK3/MAP3K11) [%] | % Enzyme Activity Remaining (relative to DMSO controls), MLK3/MAP3K11, Data 2 (MLK3/MAP3K11) [%] | remaining activity at 0.025 µM (HGK/MAP4K4) [%] | remaining activity at 0.1 µM (HGK/MAP4K4) [%] | EC50 [1, 4] [nM] | rescue of MNs in the CPA survival assay ([1]; FIG. 9)
1 | CN1CCN(Cc2ccc(-c3cnc4[nH]ccc4c3)cc2)CC1 [Compound 4, 5-(4-((4-Methylpiperazin-1-yl)methyl)phenyl)-1H-pyrrolo[2,3-b]pyridine] | Ambiguous | 10.3 | 13.7 | 95.9 | 93.5 | 91.95 | 94.97 | 101 | 88.3 |  | 
2 | CN1CCN(Cc2ccc(-c3cnc4[nH]cc(-c5cc6ccccc6[nH]5)c4c3)cc2)CC1 [Compound 7a, 3-(1H-Indol-2-yl)-5-(4-((4-methylpiperazin-1-yl)methyl)phenyl)-1H-pyrrolo[2,3-b]pyridine] |  |  |  | 74.2 | 75.1 | 63.66 | 64.82 | 86.1 | 58.8 |  | 
3 | CN1CCN(Cc2ccc(-c3cnc4[nH]cc(-c5cc(C(F)(F)F)cc(C(F)(F)F)c5)c4c3)cc2)CC1 [Compound 7aj, 3-(3,5-Bis(trifluoromethyl)phenyl)-5-(4-((4-methylpiperazin-1-yl)methyl)phenyl)-1H-pyrrolo[2,3-b]pyridine] |  |  |  | 96.4 | 92.6 | 95.75 | 93.75 | 103 | 86.6 |  | 
4 | COc1cc(-c2c[nH]c3ncc(-c4ccc(CN5CCN(C)CC5)cc4)cc23)cc(OC)c1OC [Compound 7ap, 5-(4-((4-Methylpiperazin-1-yl)methyl)phenyl)-3-(3,4,5-trimethoxyphenyl)-1H-pyrrolo[2,3-b]pyridine] |  |  |  | 54.2 | 52.8 | 70.05 | 68.91 | 35.6 | 6.76 |  | 
5 | COc1ccc(-c2c[nH]c3ncc(-c4ccc(CN5CCN(C)CC5)cc4)cc23)cc1C [Compound 7aq, 3-(4-Methoxy-3-methylphenyl)-5-(4-((4-methylpiperazin-1-yl)methyl)phenyl)-1H-pyrrolo[2,3-b]pyridine] |  |  |  | 54.5 | 53.6 | 51.92 | 49.61 | 57.3 | 20 |  | 
6 | CN1CCN(Cc2ccc(-c3cnc4[nH]cc(-c5cc6ccccc6s5)c4c3)cc2)CC1 [Compound 7g, 3-(Benzo[b]thiophen-2-yl)-5-(4-((4-methylpiperazin-1-yl)methyl)phenyl)-1H-pyrrolo[2,3-b]pyridine] |  |  |  | 55.9 | 58.5 | 45.87 | 42.66 |  |  |  | 
7 | CN1CCN(Cc2ccc(-c3cnc4[nH]cc(-c5cccc(C(=O)O)c5)c4c3)cc2)CC1 [Compound 7j, 3-(5-(4-((4-Methylpiperazin-1-yl)methyl)phenyl)-1H-pyrrolo[2,3-b]pyridin-3-yl)benzoic acid] |  |  |  | 77.7 | 77.5 | 46.91 | 44.55 | 63.6 | 20.6 |  | 
8 | CC(C)Oc1ccc(-c2c[nH]c3ncc(-c4ccc(CN5CCN(C)CC5)cc4)cc23)cc1 [Compound 7q, 3-(4-Isopropoxyphenyl)-5-(4-((4-methylpiperazin-1-yl)methyl)phenyl)-1H-pyrrolo[2,3-b]pyridine] |  | 20.6 | 21.5 | 94.1 | 95.4 | 91.91 | 89.69 |  |  | 740 | 
9 | CN1CCN(Cc2ccc(-c3cnc4[nH]cc(-c5cccc(O)c5)c4c3)cc2)CC1 [Compound 7r, 3-(5-(4-((4-Methylpiperazin-1-yl)methyl)phenyl)-1H-pyrrolo[2,3-b]pyridin-3-yl)phenol] |  |  |  | 56.2 | 58.6 | 38.87 | 39.87 | 4.88 | 1.23 |  | 
10 | Cc1ccc(S(=O)(=O)n2cc(-c3ccc4[nH]ccc4c3)c3cc(-c4ccc(C=O)cc4)cnc32)cc1 [Compound 11, 4-(3-(1H-Indol-5-yl)-1-tosyl-1H-pyrrolo[2,3-b]pyridin-5-yl)benzaldehyde] |  |  |  | 95 | 95.5 | 93.68 | 88.60 | 102 | 85.5 |  | 
11 | c1cc2cc(-c3c[nH]c4ncc(-c5ccc(CN6CC7CCC(C6)O7)cc5)cc34)ccc2[nH]1 [Compound 12a, 3-(4-(3-(1H-Indol-5-yl)-1H-pyrrolo[2,3-b]pyridin-5-yl)benzyl)-8-oxa-3-azabicyclo[3.2.1]octane] |  |  |  | 56.2 | 46.5 | 52.18 | 46.74 | 72.8 | 51.5 |  | 
12 | CN1C2CCC1CN(Cc1ccc(-c3cnc4[nH]cc(-c5ccc6[nH]ccc6c5)c4c3)cc1)C2 [Compound 12b, 3-(1H-Indol-5-yl)-5-(4-((8-methyl-3,8-diazabicyclo[3.2.1]octan-3-yl)methyl)phenyl)-1H-pyrrolo[2,3-b]pyridine] |  | 25.2 | 72.6 |  |  |  |  | 69 | 34.5 | 1960 | 
13 | CN1CC2CCC(C1)N2Cc1ccc(-c2cnc3[nH]cc(-c4ccc5[nH]ccc5c4)c3c2)cc1 [Compound 12c, 3-(1H-Indol-5-yl)-5-(4-((3-methyl-3,8-diazabicyclo[3.2.1]octan-8-yl)methyl)phenyl)-1H-pyrrolo[2,3-b]pyridine] |  | 43.7 | 43.7 |  |  |  |  | 92.7 | 84.2 | 694 | 
14 | CN1C2CCC1CN(Cc1ccc(-c3cnc4[nH]cc(-c5cccc6[nH]ncc56)c4c3)cc1)C2 [Compound 12d, 4-(5-(4-((8-Methyl-3,8-diazabicyclo[3.2.1]octan-3-yl)methyl)phenyl)-1H-pyrrolo[2,3-b]pyridin-3-yl)-1H-indazole] |  | 109 | 143 |  |  |  |  | 3.17 | -0.29 | 301 | 
15 | Fc1cccc(-c2c[nH]c3ncc(-c4ccc(CN5CCC(N6CCCCC6)CC5)cc4)cc23)c1 [Compound 12g, 5-(4-([1,4′-Bipiperidin]-1′-ylmethyl)phenyl)-3-(3-fluorophenyl)-1H-pyrrolo[2,3-b]pyridine] |  |  | 89.3 |  |  |  |  |  |  | 50 | 
16 | CC(C)(C)N1CCN(Cc2ccc(-c3cnc4[nH]cc(-c5cccc(F)c5)c4c3)cc2)CC1 [Compound 12j, 5-(4-((4-(tert-Butyl)piperazin-1-yl)methyl)phenyl)-3-(3-fluorophenyl)-1H-pyrrolo[2,3-b]pyridine] |  |  | 98.5 |  |  |  |  |  |  | 50 | 
17 | NG-25 [reference compound] |  |  |  |  |  |  |  |  |  |  | unable to rescue MNs
